Data: patent publication US4619938A, “Fatty acid derivatives of aminoalkyl nicotinic acid esters and platelet aggregation inhibitors” (Terumo Kabushiki Kaisha, priority 1984, dated 1986)
Like-named read-outs stand apart in the source and are kept apart here.

Key:
[1] = system: platelet aggregation caused by arachidonic acid (platelet-rich plasma); experiment: Platelet aggregation-inhibitory action, arachidonic acid (100 μM) induced, Born's turbidometric method; type: cell-based, rabbit; conditions: Oryctolagus cuniculus, 0.05 h, read-out: 50% inhibitory concentration, Arachidonic acid
Description: (§1) Blood was drawn from the carotid artery of a rabbit using a syringe containing 3.8% solution of sodium citrate in an amount of […] per volume of the solution. The blood was centrifuged to obtain platelet-rich plasma (PRP: 5×10^5 platelets/μl).
(§2) In a cuvette was placed 250 μl of the PRP, which is warmed in a constant-temperature bath at 37° C. for 2 min. To the warmed cuvette was added 20 μl of a solution of an alkanolamine derivative to be tested (a […] ethanol solution which had been diluted with Trisbuffered isotonic saline solution). The mixture was then incubated for 3 min., followed by addition of a aggregation inducer, an arachidonic acid solution or a collagen solution. Measurement of the platelet aggregation was made by Born's turbidometric method (e.g., described in J. Physiol., Vol. 168, P. 178, 1968). The 50% inhibitory concentration for the platelet aggregation caused by arachidonic acid (100 μM) or collagen (20 μg/ml) is given in Table 1 with reference to Aspirin for comparison.
(§3) The 50% inhibitory concentration as shown in the table means the concentration of an alkanolamine derivative required for inhibiting aggregation ability of the platelets to 50% when the aggregation ability of the platelets in the absence of the alkanolamine derivative of the invention is taken as 100%.

[2] = system: platelet aggregation caused by collagen (platelet-rich plasma); experiment: Platelet aggregation-inhibitory action, collagen (20 μg/ml) induced, Born's turbidometric method; type: cell-based, rabbit; conditions: Oryctolagus cuniculus, 0.05 h, read-out: 50% inhibitory concentration, Collagen
Description: as §1, §2, §3

[3] = rabbit PRP, 37° C., 3 min. incubation, arachidonic acid 100 μM
[4] = rabbit PRP, 37° C., 3 min. incubation, collagen 20 μg/ml

Compound | IC50 [1] | IC50 [2] | IC50 [1, 3] | IC50 [2, 4]
CC(=O)Oc1ccccc1C(=O)O [Aspirin, reference compound] | 14 µM | 13.6 µM |  | 
CC/C=C\C/C=C\C/C=C\C/C=C\C/C=C\CCCC(=O)NCCO [Example 1, N-5,8,11,14,17-eicosapentaenoyl-2-aminoethanol] |  |  | 22 µM | 98 µM
CC/C=C\C/C=C\C/C=C\C/C=C\C/C=C\CCCC(=O)OCCNC(=O)c1cccnc1 [Example 2, N-nicotinoyl-2-aminoethyl 5,8,11,14,17-eicosapentaenoate] |  |  | 11 µM | 93 µM
CC/C=C\C/C=C\C/C=C\CCCCCCCC(=O)OCCNC(=O)c1cccnc1 [Example 3, N-nicotinoyl-2-aminoethyl 9,12,15-octadecatrienoate] |  |  | 49 µM | 140 µM
CCCCC/C=C\C/C=C\C/C=C\CCCCC(=O)OCCNC(=O)c1cccnc1 [Example 4, N-nicotinoyl-2-aminoethyl 6,9,12-octadecatrienoate] |  |  | 36 µM | 190 µM
CC/C=C\C/C=C\C/C=C\C/C=C\C/C=C\CCCC(=O)NCCOC(=O)c1cccnc1 [Example 5, N-5,8,11,14,17-eicosapentaenoyl-2-aminoethyl nicotinate] |  |  | 8.8 µM | 90 µM
CC/C=C\C/C=C\C/C=C\C/C=C\C/C=C\CCCC(=O)N(CC)CCO [Example 6, N-ethyl-N-5,8,11,14,17-eicosapentaenoyl-2-aminoethanol] |  |  | 3.57 µM | 273 µM
CC/C=C\C/C=C\C/C=C\C/C=C\C/C=C\CCCC(=O)N(CCO)CCCC [Example 7, N-butyl-N-5,8,11,14,17-eicosapentaenoyl-2-aminoethanol] |  |  | 3.55 µM | 187 µM
CC/C=C\C/C=C\C/C=C\C/C=C\C/C=C\CCCC(=O)N(C)CCOC(=O)c1cccnc1 [Example 8, N-methyl-N-5,8,11, 14,17-eicosapentaenoyl-2-aminoethylnicotinate] |  |  | 6.62 µM | 111 µM
CC/C=C\C/C=C\C/C=C\CCCCCCCC(=O)N(C)CCOC(=O)c1cccnc1 [Example 9, N-methyl-N-9,12,15-octadecatrienoyl-2-aminoethylnicotinate] |  |  | 8.24 µM | 273 µM
CC/C=C\C/C=C\C/C=C\C/C=C\C/C=C\CCCC(=O)N(CC)CCOC(=O)c1cccnc1 [Example 10, N-ethyl-N-5,8,11,14,17-eicosapentaenoyl-2-aminoethylnicotinate] |  |  | 4.99 µM | 91.7 µM
CC/C=C\C/C=C\C/C=C\C/C=C\C/C=C\CCCC(=O)N(CCCC)CCOC(=O)c1cccnc1 [Example 11, N-butyl-N-5,8,11,14,17-eicosapentaenoyl-2-aminoethylnicotinate] |  |  | 6.03 µM | 197 µM
CC/C=C\C/C=C\C/C=C\C/C=C\C/C=C\CCCC(=O)NCCCOC(=O)c1cccnc1 [Example 12, N-5,8,11,14,17-eicosapentaenoyl-3-aminopropylnicotinate] |  |  | 3.44 µM | 55.3 µM
CC/C=C\C/C=C\C/C=C\C/C=C\C/C=C\CCCC(=O)OCCN(CC)C(=O)c1cccnc1 [Example 13, (N-ethyl-N-nicotinoyl-2-aminoethyl)-5,8,11,14,17-eicosapentaenoate] |  |  | 255 µM | 401 µM
CC/C=C\C/C=C\C/C=C\C/C=C\C/C=C\CCCC(=O)N(C)CCOCc1cccnc1 [Example 14, [N-methyl-N-(5,8,11,14,17-eicosapentaenoyl)-2-aminoethyl]-β-picolylether] |  |  | 5.68 µM | 50.1 µM
CC/C=C\C/C=C\C/C=C\C/C=C\C/C=C\CCCC(=O)N(CCCC)CCOCc1cccnc1 [Example 15] |  |  | 7.07 µM | 123 µM
CC/C=C\C/C=C\C/C=C\C/C=C\C/C=C\CCCC(=O)NCCOCc1cccnc1 [Example 16, (N-5,8,11,14,17-eicosapentaenoyl)-2-aminoethyl β-picolyl ether] |  |  | 5.68 µM | 50.1 µM
CC/C=C\C/C=C\C/C=C\CCCCCCCC(=O)NCCCOCc1cccnc1 [Example 17, (N-9,12,15-octadecatrienoyl)-3-aminopropyl β-picolylether] |  |  | 7.07 µM | 123 µM
